Reference: patent US4234583A, “2-Chloro-4-(4-lower alkyl-1-piperazinyl)benzenemethanol, N^ω -oxides and methods for their preparation” (priority 1978, dated 1980)
Values joined by “and” are separate entries in the source; they are usually repeats but may differ in a detail not shown here. Equal entries are not always repeated.

Key:
[1] = Acute intramuscular toxicity (LD50) in uninfected mice; conditions: mouse, in vivo, im, read-out: Approximate Acute Intramuscular LD50
Text: Approximate Acute Intramuscular LD50
Values in Uninfected Mice

[2] = system: Mature S. mansoni, Puerto Rican/Michigan strain; assay: Primary screen in mice, single oral doses, mature S. mansoni infection (Puerto Rican/Michigan strain); assay type: in vivo
Text: (§1) The compounds of the invention are useful in the treatment of schistosomiasis. Compounds of this invention, when placed in the primary screen in mice described in Am. J. Trop.
(§2) Effects of Single Oral Doses (Aqueous Solutions ) of 2-Chloro-
(§3) 4-(4-alkyl-1-piperazinyl)benzenemethanol, N^ω -oxides Against
(§4) Mature S. mansoni Infections in Mice

[3] = system: Salmonella typhimurium TA-100; assay type: cell-based
Text: The compounds of this invention have the specific advantage over the corresponding des-N-oxide compounds in that the compounds are non-mutagenic in a test designed to determine mutagenicity which is described in J. Pharm. Exp. Therap., 200, 1 (1977).
Mutagenic Activity Using Salmonella typhimurium (TA-98 and TA-100)

[4] = system: Mature S. mansoni, Puerto Rican/Sterling Winthrop strain; assay: Primary screen in mice, single oral doses, mature S. mansoni infection (Puerto Rican/Sterling Winthrop strain); assay type: in vivo
Text: as §1, §2, §3, §4

[5] = system: Mature S. mansoni, Liberian strain; assay: Primary screen in mice, single oral doses, mature S. mansoni infection (Liberian strain); assay type: in vivo
Text: as §1, §2, §3, §4

[6] = system: Mature S. mansoni, St. Lucian strain; assay: Primary screen in mice, single oral doses, mature S. mansoni infection (St. Lucian strain); assay type: in vivo
Text: as §1, §2, §3, §4

[7] = system: Mature S. mansoni, Brazilian strain; assay: Primary screen in mice, single oral doses, mature S. mansoni infection (Brazilian strain); assay type: in vivo
Text: as §1, §2, §3, §4

[8] = system: Mature S. mansoni, Puerto Rican/Walter Reed strain; assay: Primary screen in mice, single oral doses, mature S. mansoni infection (Puerto Rican/Walter Reed strain); assay type: in vivo
Text: as §1, §2, §3, §4

[9] = system: Mature S. mansoni (Puerto Rican/Walter Reed Strain); assay: Secondary test in monkeys, mature S. mansoni infection; assay type: in vivo; conditions: monkeys (Cebus apella), 50 × 4 mg/kg
Text: The preferred compound of the invention, when placed in a secondary test in monkeys described in Am. J. Trop. Med. Hyg. 15, 705 (1966) gave the following data:
Effects of 2-chloro-4-(4-methyl-1-piperazinyl)benzenemethanol,
N^ω -oxide Against Mature S. mansoni (Puerto Rican/Walter Reed
Strain) Infections in Monkeys (Cebus apella)

CCN1CCN(c2ccc(CO)c(Cl)c2)CC1 [C2 H5 des N-oxide, 2-chloro-4-(4-ethyl-1-piperazinyl)benzenemethanol, reference compound]
LD50 [1]: 150 mg/kg

CC[N+]1([O-])CCN(c2ccc(CO)c(Cl)c2)CC1 [C2 H5, 2-chloro-4-(4-ethyl-1-piperazinyl)benzenemethanol, N^ω -oxide]
% Mice Cured ([2]; single oral dose 75 mg/kg): 71% | % Reduction Live Worms ([2]; single oral dose 75 mg/kg): 92% | LD50 [1]: > 250 mg/kg

CN1CCN(c2ccc(CO)c(Cl)c2)CC1 [CH3 des N-oxide, 2-chloro-4-(4-methyl-1-piperazinyl)benzenemethanol, reference compound]
Mutagenic activity, Revertants per n mole [3]: 0.1 Revertants per n mole | LD50 [1]: 200 mg/kg

CC(C)[N+]1([O-])CCN(c2ccc(CO)c(Cl)c2)CC1 [CH(CH3)2, 2-chloro-4-[4-(1-methylethyl)-1-piperazinyl]-benzenemethanol, N^ω -oxide]
% Mice Cured ([2]; single oral dose 40 mg/kg): 19% | % Reduction Live Worms ([2]; single oral dose 40 mg/kg): 57% | % Mice Cured ([2]; single oral dose 75 mg/kg): 100% | % Reduction Live Worms ([2]; single oral dose 75 mg/kg): 100% | % Mice Cured ([2]; single oral dose 125 mg/kg): 57% | % Reduction Live Worms ([2]; single oral dose 125 mg/kg): 90% | % Mice Cured ([4]; single oral dose 75 mg/kg): 0% | % Reduction Live Worms ([4]; single oral dose 75 mg/kg): 25% | Mutagenic activity, Revertants per n mole [3]: 0.007 Revertants per n mole | % Mice Cured ([5]; single oral dose 75 mg/kg): 0% | % Reduction Live Worms ([5]; single oral dose 75 mg/kg): 42% | % Mice Cured ([5]; single oral dose 125 mg/kg): 100% | % Reduction Live Worms ([5]; single oral dose 125 mg/kg): 100% | LD50 [1]: > 1500 mg/kg | % Mice Cured ([6]; single oral dose 40 mg/kg): 0% | % Reduction Live Worms ([6]; single oral dose 40 mg/kg): 50% | % Mice Cured ([6]; single oral dose 75 mg/kg): 57% | % Reduction Live Worms ([6]; single oral dose 75 mg/kg): 75% | % Mice Cured ([7]; single oral dose 40 mg/kg): 0% | % Reduction Live Worms ([7]; single oral dose 40 mg/kg): 32% | % Mice Cured ([8]; single oral dose 40 mg/kg): 75% | % Reduction Live Worms ([8]; single oral dose 40 mg/kg): 96% | % Mice Cured ([8]; single oral dose 75 mg/kg): 72% | % Reduction Live Worms ([8]; single oral dose 75 mg/kg): 85%

C[N+]1([O-])CCN(c2ccc(CO)c(Cl)c2)CC1 [CH3, 2-chloro-4-(4-methyl-1-piperazinyl)benzenemethanol, N^ω -oxide]
% Mice Cured ([2]; single oral dose 40 mg/kg): 43% | % Reduction Live Worms ([2]; single oral dose 40 mg/kg): 79% | % Mice Cured ([2]; single oral dose 75 mg/kg): 52% | % Reduction Live Worms ([2]; single oral dose 75 mg/kg): 90% | % Mice Cured ([2]; single oral dose 300 mg/kg): 87% | % Reduction Live Worms ([2]; single oral dose 300 mg/kg): 99% | % Mice Cured ([4]; single oral dose 40 mg/kg): 33% | % Reduction Live Worms ([4]; single oral dose 40 mg/kg): 56% | % Mice Cured ([4]; single oral dose 75 mg/kg): 60% | % Reduction Live Worms ([4]; single oral dose 75 mg/kg): 69% | % Mice Cured ([5]; single oral dose 50 mg/kg): 0% | % Reduction Live Worms ([5]; single oral dose 50 mg/kg): 25% | LD50 [1]: 1500 mg/kg | Final Egg Count [9]: 0 | % Reduction Live Worms ([9]; N^ω -oxide, 4 mg/kg): 92% and 91% | % Mice Cured ([6]; single oral dose 150 mg/kg): 0% | % Reduction Live Worms ([6]; single oral dose 150 mg/kg): 16% | % Mice Cured ([7]; single oral dose 20 mg/kg): 0% | % Reduction Live Worms ([7]; single oral dose 20 mg/kg): 73% | % Mice Cured ([7]; single oral dose 40 mg/kg): 51% | % Reduction Live Worms ([7]; single oral dose 40 mg/kg): 88% | % Mice Cured ([8]; single oral dose 100 mg/kg): 100% | % Reduction Live Worms ([8]; single oral dose 100 mg/kg): 100%

CC(C)N1CCN(c2ccc(CO)c(Cl)c2)CC1 [CH(CH3)2 des N-oxide, 2-chloro-4-[4-(1-methylethyl)-1-piperazinyl]benzenemethanol, reference compound]
LD50 [1]: 100 mg/kg
